The values that follow come from patent publication EP0326331B1, “Substituted quinolines and cinnolines” (Dow AgroSciences LLC, priority 1988, dated 1989).

Common to all, as to assay type: in vivo
Data set [1] relates to Erysiphe graminis tritici (powdery mildew). Nature of the data set: Test 1 greenhouse foliar spray screen, powdery mildew on wheat. To be noted: for POWD MDEW: disease control rating, foliar spray on wheat, 400 ppm (+++ at 100 ppm); for pest or weed control at 400 ppm: Blumeria graminis, foliar, Test 1, foliar spray on wheat, disease control rating at 400 ppm / 100 ppm, read-out: POWD MDEW.

Data set [2] relates to Pyricularia oryzae (rice blast). Nature of the data set: whole plant or invertebrate. To be noted: for RICE BLAST: disease control rating, foliar spray on rice, 400 ppm (+++ at 100 ppm); for pest or weed control at 400 ppm: Pyricularia oryzae, foliar, read-out: RICE BLAST, Test 1, foliar spray on rice, disease control rating at 400 ppm / 100 ppm.
In data set [3] the test system is Puccinia recondita tritici (leaf rust). Nature of the data set: Test 1 greenhouse foliar spray screen, leaf rust on wheat. To be noted: for LEAF RUST: disease control rating, foliar spray on wheat, 400 ppm (+++ at 100 ppm); for pest or weed control at 400 ppm: Puccinia recondita, foliar, Test 1, foliar spray on wheat, disease control rating at 400 ppm / 100 ppm.
Data set [4] relates to Botrytis cinerea (gray mold). Nature of the data set: Test 1 greenhouse foliar spray screen, gray mold on grape berries. To be noted: for GRAY MOLD: disease control rating, spray on grape berries, 400 ppm (+++ at 100 ppm); for pest or weed control at 400 ppm: Botrytis cinerea, foliar, Test 1, spray on grape berries, disease control rating at 400 ppm / 100 ppm.
For data set [5], the system named is Pseudoperonospora cubensis (downy mildew). Nature of the data set: Test 1 greenhouse foliar spray screen, downy mildew on squash. To be noted: for DOWN MDEW: disease control rating, foliar spray on squash, 400 ppm (+++ at 100 ppm); for activity against downy mildew: summary statement in the description; for pest or weed control at 400 ppm: Pseudoperonospora cubensis, foliar, Test 1, foliar spray on squash, disease control rating at 400 ppm / 100 ppm, read-out: DOWN MDEW.

Data set [6] deals with Cercospora beticola (leaf spot). Nature of the data set: Test 1 greenhouse foliar spray screen, leaf spot on sugar beet. The following applies: for LEAF SPOT: disease control rating, foliar spray on sugar beet, 400 ppm (+++ at 100 ppm); for pest or weed control at 400 ppm: Cercospora beticola, Test 1, foliar spray on sugar beet, disease control rating at 400 ppm / 100 ppm.
The test system of data set [7] is Venturia inaequalis (apple scab). Nature of the data set: Test 1 greenhouse foliar spray screen, apple scab on apple seedling. The following applies: for APPL SCAB: disease control rating, foliar spray on apple seedling, 400 ppm (+++ at 100 ppm); for pest or weed control at 400 ppm: Venturia inaequalis, Test 1, foliar spray on apple seedling, disease control rating at 400 ppm / 100 ppm, read-out: APPL SCAB.

Data set [8] concerns Septoria tritici (leaf blotch). Nature of the data set: Test 1 greenhouse foliar spray screen, leaf blotch on wheat. The following applies: for LEAF BLOT: disease control rating, foliar spray on wheat, 400 ppm (+++ at 100 ppm); for pest or weed control at 400 ppm: Zymoseptoria tritici, Test 1, foliar spray on wheat, disease control rating at 400 ppm / 100 ppm, read-out: LEAF BLOT.

A further data set relates to plant pathogens. Nature of the data set: Fungicidal efficacy against a broad spectrum of plant pathogens (summary of screen). The following applies: summary statement in the description.
Data set [9] deals with Twospotted spider mites (Tetranychus urticae Koch). Nature of the data set: Mite/insect screen, SM. The following applies: for mortality at 200 ppm / mortality at 400 ppm: Tetranychus urticae, read-out: SM RESULTS %; for mortality at 200 ppm / SM RESULTS % / mortality at 400 ppm: percent mortality; for activity as miticides: summary statement in the description. Summed up: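 Read-out: percent mortality after standard exposure periods. Test solutions were water dilutions of compound dissolved in acetone/alcohol (50:50) with emulsifier blends; leaves were sprayed to runoff on both surfaces and air-dried for one hour before exposure.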

The subject of data set [10] is melon aphids (Aphis gossypii Glover). Nature of the data set: Mite/insect screen, MA. To be noted: percent mortality; for mortality at 200 ppm / mortality at 400 ppm: Aphis gossypii, read-out: MA RESULTS %. In short, it runs like this:
(§1)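 Percent mortality was scored after standard exposure periods, following spraying of leaves to runoff (both surfaces, 10 psi, 1 h drying) with water dilutions of compound in emulsifier-containing acetone/alcohol (50:50). Armyworms received excised treated leaves in dishes.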

For a further data set, the system named is corn rootworm. Nature of the data set: Mite/insect screen, CRW. The following applies: percent mortality; for mortality at 12 ppm / mortality at 24 ppm: read-out: CRW RESULTS %. In short, it runs like this: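 Corn rootworm mortality (%) was evaluated following standard exposure times. Test material was emulsified by dissolution in acetone/alcohol (1:1) containing sulfonate/nonionic emulsifier blends TOXIMUL R (23 g/L) and TOXIMUL S (13 g/L), and water-diluted to the indicated doses.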

Data set [11] relates to southern armyworm (Spodopetra eridania Cramer). Nature of the data set: Mite/insect screen, SAW. To be noted: Spodoptera eridania, percent mortality, read-out: SAW RESULTS %; for mortality at 200 ppm: rate 200 ppm. Summed up:
as §1

Setting [12] is: foliar, rate 200 ppm, foliar spray on squash.
Where [13] appears, read: foliar, rate 400 ppm, foliar spray on squash.

Read-outs that look alike come from different tables or passages of the source.

`Fc1cccc2c(NCCc3ccc(Cl)cc3Cl)ccnc12` [Example 76, N-[2-(2,4-dichlorophenyl)ethyl]-8-fluoro-4-quinolinamine]: the “POWD MDEW” value in [1] is “++ (90-100% control at 400 ppm)”. For the same compound, the “RICE BLAST” value in data set [2] was “+++ (90-100% control at 100 ppm)”. Besides, in data set [3], the “LEAF RUST” value is “+++ (90-100% control at 100 ppm)”. In addition, the “GRAY MOLD” value in data set [4] was “- (0-19% control at 400 ppm)”. In addition, the “DOWN MDEW” value in [5] was “+++ (90-100% control at 100 ppm)”. Besides, the “LEAF SPOT” value in data set [6] is on record as “- (0-19% control at 400 ppm)”. In addition, the “APPL SCAB” value in data set [7] is reported as “+ (20-89% control at 400 ppm)”. In addition, the “LEAF BLOT” value in [8] is “+++ (90-100% control at 100 ppm)”. In the data set on plant pathogens, the “activity against a broad spectrum of plant pathogens” value (“activity against a broad spectrum” below) is listed as “particularly excellent activity”. Moreover, in data set [9] (SAW, SM & MA RATE 200 PPM), the mortality at 200 ppm turned out to be 0% and the “SM RESULTS %” value came to 0%. In [10] (SAW, SM & MA RATE 200 PPM), the mortality at 200 ppm amounted to 0% and the “MA RESULTS %” value was 0%. Moreover, in the data set on corn rootworm (CRW RATE 12.00 PPM), the “CRW RESULTS %” value was 0% and the mortality at 12 ppm is 0%.

As to `CC(C)c1ccc(CCNc2ccnc3c(F)cccc23)cc1` [Example 114, N-[2-[4-(i-propyl)phenyl]ethyl]-8-fluoro-4-quinolinamine], the “POWD MDEW” value in data set [1] was “+++ (90-100% control at 100 ppm)”. Also, in [2], the “RICE BLAST” value is “+++ (90-100% control at 100 ppm)”. Besides, in data set [2] (summary statement in the description), the “activity against rice blast” value is recorded as “particularly excellent activity”. For the same compound, the “LEAF RUST” value in data set [3] was “+++ (90-100% control at 100 ppm)”. Also, the “GRAY MOLD” value in [4] is “- (0-19% control at 400 ppm)”. Further, in data set [5], the “DOWN MDEW” value was “+++ (90-100% control at 100 ppm)”. For the same compound, in [5], the “activity against downy mildew” value was “particularly excellent activity”. Besides, in data set [6], the “LEAF SPOT” value is listed as “+++ (90-100% control at 100 ppm)”. In addition, the “APPL SCAB” value in [7] is “- (0-19% control at 400 ppm)”. The “LEAF BLOT” value in [8] is “+++ (90-100% control at 100 ppm)”. Moreover, in the data set with plant pathogens, the “activity against a broad spectrum” value is recorded as “particularly excellent activity”. Further, the mortality at 400 ppm was 70% in data set [11] (SAW, SM & MA RATE 400 PPM); 100% in data set [9] (SAW, SM & MA RATE 400 PPM); 30% in data set [10] (SAW, SM & MA RATE 400 PPM). The activity as miticides result in data set [9] is “particularly excellent activity”. The mortality at 24 ppm in the data set with corn rootworm (CRW RATE 24.00 PPM) was 0%.

As to `Fc1cccc2c(OCCc3ccc(Cl)cc3)ccnc12` [Example 209, 4-[2-(4-chlorophenyl)-ethoxy]-8-fluoroquinoline], the pest or weed control at 400 ppm was in the range of 90 to 100% in [1]; 90 to 100% in data set [2]; 90 to 100% in data set [3]; 0 to 19% in data set [4]; 90 to 100% in data set [5]; 90 to 100% in data set [6]. Also, the pest or weed control at 400 ppm in data set [7] was 20 to 89%; in data set [8], 90 to 100%. In addition, the “activity against a broad spectrum” value with plant pathogens was “particularly excellent activity”. For the same compound, the mortality at 200 ppm in data set [9] (setting [12]) came out at 0%. The “SM RESULTS %” value in data set [9] (rate 200 ppm, foliar spray on squash) worked out at 0%. Further, the “CRW RESULTS %” value in the data set on corn rootworm (CRW rate 12.00 ppm) is recorded as 0%. Moreover, the mortality at 12 ppm in the data set with corn rootworm (CRW rate 12.00 ppm) was determined as 0%.

Regarding `Cc1ccc(CCOc2ccnc3ccccc23)cc1` [Example 210, 4-[2-(4-methylphenyl)ethoxy]quinoline], the pest or weed control at 400 ppm in data set [1] is 90 to 100%; in [2], 90 to 100%; in data set [3] it was 90 to 100%; in data set [4] it was 0 to 19%; in data set [5], 90 to 100%; in data set [6] it was 20 to 89%. Moreover, the pest or weed control at 400 ppm in data set [7] lay within 0 to 19%; in data set [8], 90 to 100%. Moreover, in data set [5], the “activity against downy mildew” value is on record as “particularly excellent activity”. Besides, the “activity against a broad spectrum” value in the data set with plant pathogens is on record as “particularly excellent activity”. Also, the mortality at 200 ppm stood at 0% in data set [11] (foliar, foliar spray on squash); 0% in data set [9] (setting [12]); 0% in data set [10] (setting [12]). Besides, the mortality at 12 ppm in the data set on corn rootworm (CRW rate 12.00 ppm) amounted to 0%.

Consider `Fc1ccccc1CCOc1ccnc2c(F)cccc12` [Example 225, 8-fluoro-4-[2-(2-fluorophenyl)ethoxy]quinoline], for which the pest or weed control at 400 ppm lay within 90 to 100% in [1]; 90 to 100% in data set [2]; 90 to 100% in [3]; 0 to 19% in data set [4]; 90 to 100% in data set [5]. Moreover, in the data set with plant pathogens, the “activity against a broad spectrum” value was “particularly excellent activity”. For the same compound, the mortality at 400 ppm in data set [11] (setting [13]), in data set [9] (setting [13]) and in data set [10] (setting [13]) was 0% in each case. For the same compound, in the data set with corn rootworm (CRW rate 24.00 ppm), the mortality at 24 ppm was 0%.

In the case of `CC(C)c1ccc(CCOc2ccnc3c(F)cccc23)cc1` [Example 238, 8-fluoro-4-[2-(4-(i-propyl)phenyl)ethoxy]quinoline], the pest or weed control at 400 ppm in data set [1] lay within 90 to 100%; in data set [2] it was 90 to 100%; in data set [3], 90 to 100%; in [4], 20 to 89%; in data set [5] it was 90 to 100%. Also, in the data set with plant pathogens, the “activity against a broad spectrum” value is on record as “particularly excellent activity”. In addition, the mortality at 200 ppm in [11] (foliar, foliar spray on squash) was 0%; in data set [9] (setting [12]) it was 100%; in [10] (setting [12]) it was 100%. Moreover, the results for the mortality at 400 ppm in [11] (setting [13]), in [9] (setting [13]) and in data set [10] (setting [13]) were 100%, 0% and 0%, respectively. In addition, the activity as miticides result in data set [9] was “particularly excellent activity”. In addition, the mortality at 12 ppm in the data set on corn rootworm (CRW rate 12.00 ppm) was 0%. Also, the mortality at 24 ppm with corn rootworm (CRW rate 24.00 ppm) was 0%.

As for `CC(C)c1ccc(CCCc2ccnc3c(F)cccc23)cc1` [Example 256, 8-fluoro-4-[3-(4-(i-propyl)phenyl)propyl]quinoline], the pest or weed control at 400 ppm is 90 to 100% in [1]; 90 to 100% in data set [2]; 90 to 100% in data set [3]; 0 to 19% in [4]; 90 to 100% in [5]. Further, in the data set on plant pathogens, the “activity against a broad spectrum” value was “particularly excellent activity”. Also, the mortality at 400 ppm in data set [11] (setting [13]) came to 100%; in [9] (setting [13]) it was 0%; in [10] (setting [13]), 0%. Moreover, in the data set on corn rootworm (CRW rate 24.00 ppm), the mortality at 24 ppm was 100%.
